Data: PubChem BioAssay (NCI)
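These data come from cells grown in 96-well plates and exposed to compound for 48 hours at five concentrations. TGI: concentration producing complete growth inhibition.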

Tested on: SN12K1 renal
Test: DTP human tumour cell line panel, 48 h

| Structure (SMILES) | TGI [µM] |
| --- | --- |
| COc1cc(C2c3cc4c(cc3[C@@H](Nc3cccc(O)c3)C3COC(=O)[C@H]23)OCO4)cc(OC)c1O (some centres not stated) | 7.81 |
| Nc1ccc2c(c1)CN1C(=O)c3ccccc3C1=N2 | > 72.4 |
